Results taken from PubChem BioAssay (NCI).
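How tested: cells in 96-well plates exposed to compound for 48 hours at five concentrations. TGI denotes the concentration required for complete inhibition of growth.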

Key:
Assay in all cases: NCI anticancer screen, dose series, 48 h
[1] = tested on: 786-0 renal
[2] = tested on: A549 NSCLC
[3] = tested on: ACHN renal
[4] = tested on: BT-549 breast
[5] = tested on: CAKI-1 renal
[6] = tested on: CCRF-CEM leukemia
[7] = tested on: COLO 205 colon
[8] = tested on: DU-145 prostate
[9] = tested on: EKVX NSCLC
[10] = tested on: HCT-116 colon
[11] = tested on: HCT-15 colon
[12] = tested on: HL-60(TB) leukemia
[13] = tested on: HOP-62 NSCLC
[14] = tested on: HOP-92 NSCLC
[15] = tested on: HS 578T breast
[16] = tested on: HT29 colon
[17] = tested on: IGROV1 ovarian
[18] = tested on: K-562 leukemia
[19] = tested on: KM12 colon
[20] = tested on: LOX IMVI melanoma
[21] = tested on: M14 melanoma
[22] = tested on: MALME-3M melanoma
[23] = tested on: MCF7 breast
[24] = tested on: MDA-MB-231 breast
[25] = tested on: MDA-MB-435
[26] = tested on: MDA-N
[27] = tested on: MOLT-4 leukemia
[28] = tested on: NCI-H226 lung
[29] = tested on: NCI-H23 lung
[30] = tested on: NCI-H522 lung
[31] = tested on: NCI/ADR-RES ovarian
[32] = tested on: OVCAR-3 ovarian
[33] = tested on: OVCAR-4 ovarian
[34] = tested on: OVCAR-5 ovarian
[35] = tested on: OVCAR-8 ovarian
[36] = tested on: PC-3 prostate
[37] = tested on: RPMI-8226 leukemia
[38] = tested on: RXF 393 renal
[39] = tested on: SF-268 CNS
[40] = tested on: SF-295 CNS
[41] = tested on: SF-539 CNS
[42] = tested on: SK-MEL-2 melanoma
[43] = tested on: SK-MEL-28 melanoma
[44] = tested on: SK-MEL-5 melanoma
[45] = tested on: SK-OV-3 ovarian
[46] = tested on: SN12C renal
[47] = tested on: SNB-19 CNS
[48] = tested on: SNB-75 CNS
[49] = tested on: SR leukemia
[50] = tested on: SW-620 colon
[51] = tested on: T-47D breast
[52] = tested on: TK-10 renal
[53] = tested on: U251 CNS
[54] = tested on: UACC-257 melanoma
[55] = tested on: UO-31 renal
[56] = tested on: A498 renal
[57] = tested on: HCC-2998 colon
[58] = tested on: NCI-H460 lung
[59] = tested on: UACC-62 melanoma

O=C(c1ccccc1)c1ccc2nc(-c3c(Cl)c(Cl)c(Cl)c(Cl)c3C(=O)N/N=C\C=C\c3ccccc3)[nH]c2c1
TGI [1]: > 100 µM | TGI [2]: > 100 µM | TGI [3]: > 100 µM | TGI [4]: > 100 µM | TGI [5]: > 100 µM | TGI [6]: 86.8 µM | TGI [7]: > 100 µM | TGI [8]: > 100 µM | TGI [9]: > 100 µM | TGI [10]: > 100 µM | TGI [11]: > 100 µM | TGI [12]: > 100 µM | TGI [13]: > 100 µM | TGI [14]: > 100 µM | TGI [15]: > 100 µM | TGI [16]: > 100 µM | TGI [17]: > 100 µM | TGI [18]: > 100 µM | TGI [19]: > 100 µM | TGI [20]: > 100 µM | TGI [21]: > 100 µM | TGI [22]: > 100 µM | TGI [23]: > 100 µM | TGI [24]: > 100 µM | TGI [25]: > 100 µM | TGI [26]: > 100 µM | TGI [27]: > 100 µM | TGI [28]: > 100 µM | TGI [29]: > 100 µM | TGI [30]: > 100 µM | TGI [31]: > 100 µM | TGI [32]: 84.8 µM | TGI [33]: > 100 µM | TGI [34]: > 100 µM | TGI [35]: > 100 µM | TGI [36]: > 100 µM | TGI [37]: 64 µM | TGI [38]: 95.3 µM | TGI [39]: > 100 µM | TGI [40]: > 100 µM | TGI [41]: > 100 µM | TGI [42]: > 100 µM | TGI [43]: > 100 µM | TGI [44]: > 100 µM | TGI [45]: > 100 µM | TGI [46]: > 100 µM | TGI [47]: > 100 µM | TGI [48]: > 100 µM | TGI [49]: 97.4 µM | TGI [50]: > 100 µM | TGI [51]: > 100 µM | TGI [52]: > 100 µM | TGI [53]: > 100 µM | TGI [54]: > 100 µM | TGI [55]: > 100 µM

COC(=O)/C(=C(\C)NC(C)=O)c1c(C(=O)OC)[nH]c2ccccc12
TGI [1]: > 100 µM | TGI [56]: > 100 µM | TGI [2]: > 100 µM | TGI [3]: > 100 µM | TGI [4]: > 100 µM | TGI [5]: > 100 µM | TGI [6]: > 100 µM | TGI [7]: > 100 µM | TGI [8]: > 100 µM | TGI [9]: > 100 µM | TGI [57]: > 100 µM | TGI [10]: > 100 µM | TGI [11]: > 100 µM | TGI [12]: > 100 µM | TGI [13]: > 100 µM | TGI [14]: > 100 µM | TGI [15]: > 100 µM | TGI [16]: > 100 µM | TGI [17]: > 100 µM | TGI [18]: > 100 µM | TGI [19]: > 100 µM | TGI [20]: > 100 µM | TGI [21]: > 100 µM | TGI [22]: > 100 µM | TGI [23]: > 100 µM | TGI [24]: > 100 µM | TGI [25]: > 100 µM | TGI [26]: > 100 µM | TGI [27]: > 100 µM | TGI [28]: > 100 µM | TGI [29]: > 100 µM | TGI [58]: > 100 µM | TGI [30]: > 100 µM | TGI [31]: > 100 µM | TGI [32]: > 100 µM | TGI [33]: > 100 µM | TGI [34]: > 100 µM | TGI [35]: > 100 µM | TGI [36]: > 100 µM | TGI [37]: > 100 µM | TGI [38]: > 100 µM | TGI [39]: > 100 µM | TGI [40]: > 100 µM | TGI [41]: > 100 µM | TGI [42]: > 100 µM | TGI [43]: > 100 µM | TGI [44]: > 100 µM | TGI [45]: > 100 µM | TGI [46]: > 100 µM | TGI [47]: > 100 µM | TGI [49]: > 100 µM | TGI [50]: > 100 µM | TGI [51]: > 100 µM | TGI [52]: > 100 µM | TGI [53]: > 100 µM | TGI [54]: > 100 µM | TGI [59]: > 100 µM | TGI [55]: > 100 µM
